Source: PMC9468151, “Identification of a binding site on soluble RANKL that can be targeted to inhibit soluble RANK-RANKL interactions and treat osteoporosis” (Nature Communications, 2022)
Values joined by “and” are separate entries in the source; they are usually repeats but may differ in a detail not shown here. Equal values may be shown once.

Experiments:
OVX mice [1] = test: Osteoporosis therapeutic study in OVX mice (micro-CT); format: in vivo, mouse; details: S3-15 10 mg/kg/day 4 weeks, individual animals
Method: Female SD rats or C57BL/6 mice were cared until they grown up to 6 months old or 10 weeks old, respectively. Then we subjected them to either bilateral ovariectomy or sham operation after anesthesia with 10% chloral hydrate (0.3 mL/100 g). Then all the rats or mice were intramuscular injected of penicillin to prevent infection in the first week of surgery. For rat experiments, after 12 weeks of operation, 3 rats from sham-operated or ovariectomized groups were random selected to determine bone mass by micro-CT imaging biopsy to verify successful produced bone loss(data unshown). Then the OVX rats were individually administrated with S3-15, S3, and S3-05 orally with (10 mg/kg/day) for another 12 weeks. For mouse experiments, after 4 weeks of surgery, the OVX mice were treated with 10 mg/kg/day S3-15 for another 4 weeks.
(§1) The weight of rats or mice were recorded every week in the treatment period. After treatment, the rats were harvested, the serum, heart, liver, spleen, lung, kidney, thymus, and femurs were all collected and subjected to subsequent analysis. The right femurs of rats or mice were cleaned excess soft tissue, fixed in 10% formalin, and processed them for microcomputed tomography (micro-CT) analysis. Left mice femurs were collected and excarnate for biomechanical strength testing. Mice peripheral blood were as well as collected for flow cytometry analyzing.
The right femurs of rats or mice were further analyzed with micro-CT on Inveon PET/CT (Siemens, Germany). We used micro-CT to scan the femur from the femoral head to the femoral condyle, using 19 μm resolution, 80 kV 500uA, 360 projection, 3000-6000 image threshold, full rotation cone beam. Three-dimensional reconstruction and histomorphometric analyses of trabecular bone were conducted with the IAW (Inveon analysis workstation) analysis software. […] Trabecular bone parameters were measured including bone volume/tissue volume (BV/TV), bone surface area/bone volume (BS/BV), trabecular number (Tb.N), trabecular thickness (Tb.Th), trabecular separation(Tb.Sp) and trabecular pattern factor(Tb.P.F).

[2] = test system: osteoclast markers (DC-stamp, Ctsk, MMP9, Tracp, Oscar, Calcr); test: RT-qPCR of osteoclast marker genes in BMMs; format: cell-based, mouse
Method: The mRNA expression level of S3-15 was measured by RT–qPCR as primary described. Total cellular RNA sample was prepared using RNAiso Plus, followed by reverse transcription with PrimeScript™ MixRT Master Mix reverse transcriptase kit. Then quantitative real-time PCR assays were performed with TB Green™ premix EX Taq™ II kit on an Applied Biosystems. […] signaling inhibiting effect was determined by western blotting. RAW264.7 cells were treated with 5 μM S3-15 with or without sRANKL (100 ng/mL) for 5, 10, 30 and 60 min after starved for 1 h. Then the cells were washed with cold PBS and lysed by RIPA Lysis Buffer. Cell lysates were then processed for Western Blotting analyses. Primary antibody binding was detected using rat secondary antibodies (1:5000) coupled with enhanced chemiluminescence (ECL) reagents (Thermo Scientific) and visualized on Tanon 5200. Primers used for qPCR and antibodies used for western blotting were seen supplementary materials for details.

OVX mice [3] = test: Splenic lymphocyte transformation test; format: in vivo, mouse; set-up: key: OD (MTT) of stimulated minus unstimulated cells; details: OVX mice + S3-15 4 weeks, individual animals
Method: Spleens were aseptically isolated from sham group, OVX group and OVX treatment group after treating S3-15 for 4 weeks in a clean bench (II Class biosafety Cabinets, Escolifesciences, Singapore). Splenic single cell suspensions were obtained by gentle squeezing spleen tissue by injecting 2 mL cold Hank’s solution. Splenic cells were filtered through 40 μm nylon filters (BD Biosciences, Darmstadt, Germany), and centrifuged at 1400 × g for 10 min. Then cells were resuspended in 1640 completed medium (containing 10%FBS, 1% penicillin/streptomycin, 1% glutamine (200 mmol/L) and 5 × 10^−5 mol/L 2-mercaptoethanol) with a concentration of 5 × 10^6 cells/mL and seeded 100 μL into 96-well plates. Two wells for each mouse, and one well stimulated with 50 μL […] (Sigma-Aldrich®, Germany) solution (working concentration 7.5 μg/mL in 1640 completed medium), another well added 50 μL 1640 complete medium as a control. After that, the plates were incubated at 37 °C in a CO2 incubator at 5% CO2 for 72 h. After stimulation, cells were measured by MTT method. Stimulation of cell proliferation ability was determined as the absorbance (OD) value of stimulated minus unstimulated cells for each cell sample.

[4] = test system: WT sRANKL or Q238A sRANKL induced osteoclast formation; test: Rescue experiment: osteoclast formation induced by WT or Q238A sRANKL; format: cell-based, mouse
Method: For the osteoclast formation induced by WT and Q238A sRANKL experiments, BMMs were seeded in 96-well plate in density of 6 × 10^3 cell/ well with α-MEM completed medium containing 10 ng/mL M-CSF for 24 h. Then the cells were treated with 0 μM, 0.3 μM, 3 μM and 10 μM and stimulated with 100 ng/mLWT sRANKL or Q238A sRANKL respectively. For the osteoclast formation induced by WT, W194A, and H226A sRANKL experiments, cells were stimulated with 100 ng/mL WT sRANKL combined W194A, H226A sRANKL in different concentrations (50 ng/mL, 200 ng/mL, and 400 ng/mL) with or without 10 μM S3-15. After 5 days, osteoclasts were formed, and applied TRAP-staining as described above. TRAP-positive multinucleated cells with > 3 nuclei were scored as osteoclasts.

OVX mice [5] = test: Three-point bending test of femur (biomechanical strength); format: in vivo, mouse; details: OVX mice + S3-15, individual animals
Method: as §1

[6] = BMMs, 100 ng/mL sRANKL + S3-15, relative to vehicle
[7] = versus Vehicle, three replicates

## CC(=O)/C(=N\Nc1ccccc1C(=O)O)C(=O)Nc1ccccn1 [S3-15]
OVX mice [1]
  BV/TV: 0.134 and 0.2459 and 0.2549 and 0.1314 and 0.1319 and 0.1667 and 0.09144 and 0.215
  Tb.N: 3.01 1/mm and 5.848 1/mm and 5.596 1/mm and 2.742 1/mm and 2.832 1/mm and 3.86 1/mm and 1.833 1/mm and 4.649 1/mm
  Tb.Th: 0.0445 mm and 0.04205 mm and 0.04556 mm and 0.04792 mm and 0.04659 mm and 0.04318 mm and 0.04987 mm and 0.04624 mm
[2]; BMMs without RANKL
  osteoclastogenesis related gene expression without RANKL: cannot affect
[2]; [6]
  Calcr mRNA expression: 452.218 and 472.155 and 436.053
  Ctsk mRNA expression: 96.8459 and 61.7386 and 86.8018
  DC-Stemp mRNA expression: 112.451 and 102.455 and 155.105
  MMP9 mRNA expression: 167.711 and 113.637 and 211.945
  Oscar mRNA expression: 160.036 and 111.839 and 197.432
  Tracp mRNA expression: 180.942 and 181.792 and 170.309
[2]; [7]
  Calcr relative expression (fig. S3i): 0.46 and 0.59 and 1.1
  Ctsk relative expression (fig. S3i): 1.05 and 0.94 and 2.17
  DC-Stamp relative expression (fig. S3i): 0.75 and 0.62 and 1.46
  MMP9 relative expression (fig. S3i): 1.19 and 1.06 and 1.03
  Oscar relative expression (fig. S3i): 0.54 and 0.76 and 2.12
  Tracp relative expression (fig. S3i): 0.53 and 0.95 and 1.32
OVX mice [3]
  Spleen lymphocyte transforming index: 0.337 and 0.404 and 0.3367 and 0.4323 and 0.2993 and 0.3783 and 0.2337 and 0.316
[4]; Q238A sRANKL
  osteoclastogenesis when incubated with Q238A sRANKL: cannot block osteoclastogenesis
[4]; Q238A sRANKL 100 ng/mL, S3-15 0.3 μM
  Number of OCs: 268 and 278 and 265
[4]; Q238A sRANKL 100 ng/mL, S3-15 3 μM
  Number of OCs: 250 and 279 and 269
[4]; Q238A sRANKL 100 ng/mL, S3-15 10 μM
  Number of OCs: 265 and 279 and 270
[4]; WT RANKL 100 ng/mL, S3-15 0.3 μM
  Number of OCs: 142 and 135 and 149
[4]; WT RANKL 100 ng/mL, S3-15 3 μM
  Number of OCs: 35 and 57 and 40
OVX mice [5]
  Femur ultimate load: 16.2764 N and 16.6572 N and 19.3534 N and 19.5584 N and 18.4846 N and 18.452 N and 16.2074 N and 13.318 N
